Results as given in patent US20130109693A1, “DERIVATIVES OF PYRIDO [3,2-D] PYRIMIDINE, METHODS FOR PREPARATION THEREOF AND THERAPEUTIC USES THEREOF” (UNIVERSITE D'ORLEANS, priority 2010, published 2013).

How the values were obtained:
Huh7 = experiment: Cytotoxicity on human cells, Huh7 (liver); type: cell-based; conditions: Huh-7, human cells, exposed 24 h and 48 h, 0.1 to 25 μM
Description: (§1) […] Dosages on Human cells (Huh7, Caco, MDA-MB 231, HCT 116, PC3, NCl, Fibroblast)
(§2) Cytotoxicity: This method is based on an automated imaging analysis. 4.10^3 cells were cultivated on 96-well plates and thus left for 24 hours so that they may bind, be distributed and proliferate.
(§3) These cells were then exposed for 24 h and 48 h to increasing concentrations of the compounds of the invention, from 0.1 to 25 μM in a final volume of 80 μL of culture medium. The cells are then set with a 4% paraformaldehyde solution and the nuclei are colored with Hoechst 3342 and counted according to automated imaging quantification.
(§4) All the cell lines were cultivated in a DMEM or RPMI (Invitrogen) medium. All these media were completed with antibiotics (penicillin-streptomycin)(Lonza) and 10% by volume of foetal calf serum (Invitrogen). The cells were cultivated at 37° C. with 5% of CO2. The treatments with the molecules to be tested were carried out with increasing concentrations. […] The control experiments were also conducted by using suitable dilutions of DMSO (maximum 1% DMSO). Cell viability was determined by measuring the reduction of MTS as described in the article of Ribas J, Boix J. (2004). Cell differentiation caspase inhibition and macromolecular synthesis blockage but not BCL-2 or BCL-XL proteins protect SH-SY5Y cells from apoptosis triggered by two CDK inhibitory drugs. Exp. Cell Res., 295: 9-24.

Caco = experiment: Cytotoxicity on human cells, Caco (colon); type: cell-based; conditions: exposed 24 h and 48 h, 0.1 to 25 μM
Description: as §1, §2, §3, §4

MDA-MB 231 = experiment: Cytotoxicity on human cells, MDA-MB 231 (breast); type: cell-based; conditions: MDA-MB-231, human cells, exposed 24 h and 48 h, 0.1 to 25 μM
Description: as §1, §2, §3, §4

HCT 116 = experiment: Cytotoxicity on human cells, HCT 116 (colon); type: cell-based; conditions: exposed 24 h and 48 h, 0.1 to 25 μM
Description: as §1, §2, §3, §4

PC3 = experiment: Cytotoxicity on human cells, PC3 (prostate); type: cell-based; conditions: PC-3, human cells, exposed 24 h and 48 h, 0.1 to 25 μM
Description: as §1, §2, §3, §4

NCI = experiment: Cytotoxicity on human cells, NCI (lung); type: cell-based; conditions: exposed 24 h and 48 h, 0.1 to 25 μM
Description: as §1, §2, §3, §4

fibroblast = experiment: Cytotoxicity on human cells, fibroblast; type: cell-based; conditions: exposed 24 h and 48 h, 0.1 to 25 μM
Description: as §1, §2, §3, §4

DYRK1A = DYRK1A (Homo sapiens, UniProt Q13627); experiment: DYRK1A kinase inhibition (Woodtide substrate, buffer A); type: biochemical; conditions: 15 μM ATP, 30° C., recombinant GST fusion; read-out: IC50 Kinases DYRK1A
Description: (§5) The activities for inhibiting protein kinases of the compounds of the invention are tested according to the following general procedure:
(§6) Buffer A: 10 mM MgCl2, 1 mM EGTA, 1 mM DTT, 25 mM Tris-HCl pH 7.5 and 50 μg heparin/mL.
(§7) The kinase activities are dosed in buffers A or C, at 30° C., at a final concentration of ATP of 15 μM. The values of the blanks were subtracted and the activities are expressed as a % of the maximum activity, i.e. in the absence of inhibitors. The controls were carried out with suitable dilutions of DMSO.

CDK5 = target: T1, CDK5 (Homo sapiens, UniProt Q00535); experiment: CDK5 kinase inhibition (histone H1, [γ-33P] ATP, buffer C); type: biochemical; conditions: 15 μM ATP, 30° C., recombinant; read-out: IC50 Kinases CDK5
T1 construct: made in house
T1 sequence (Q00535 whole entry): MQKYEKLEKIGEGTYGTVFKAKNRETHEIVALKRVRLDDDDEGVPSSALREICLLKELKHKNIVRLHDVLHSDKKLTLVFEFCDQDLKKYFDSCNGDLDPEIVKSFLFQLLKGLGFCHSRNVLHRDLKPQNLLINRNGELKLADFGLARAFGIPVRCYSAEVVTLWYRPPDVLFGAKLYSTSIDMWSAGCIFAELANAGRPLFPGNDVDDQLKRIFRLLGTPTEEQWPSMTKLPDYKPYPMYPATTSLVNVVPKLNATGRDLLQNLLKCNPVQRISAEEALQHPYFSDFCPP
T1 sequence (Q15078 99-307 partner limits assumed): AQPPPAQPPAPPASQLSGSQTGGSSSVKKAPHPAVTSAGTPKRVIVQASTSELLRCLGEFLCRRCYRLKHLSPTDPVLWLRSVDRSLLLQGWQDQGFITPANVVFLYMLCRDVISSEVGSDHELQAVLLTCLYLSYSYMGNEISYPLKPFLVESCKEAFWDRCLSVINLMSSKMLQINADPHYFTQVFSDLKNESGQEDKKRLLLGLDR
Description: as §5
Buffer C: 60 mM β-glycerophosphate, 15 mM p-nitrophenyl-phosphate, 25 mM Mops (pH 7.2), 5 mM EGTA, 15 mM MgCl2, 1 mM DTT, 1 mM of sodium vanadate
as §7
CDK5 (humane, recombinant) was prepared as described earlier (Leclerc, S.; Garnier, M.; Hoessel, R.; Marko, D.; Bibb, J. A.; Snyder, G. L.; Greengard, P.; Biernat, J.; Mandelkow, E.-M.; Eisenbrand, G.; Meijer, L. Indirubins inhibit glycogen synthase kinase-3β and CDK5/p25, two kinases involved in abnormal tau phosphorylation in Alzheimer's disease—A property common to most CDK inhibitors? J. Biol. Chem. 2001, 276, 251-260; Bach S, Knockaert M, Reinhardt J, Lozach O, Schmitt S, Baratte B et al. (2005). Roscovitine targets, protein kinases and pyridoxal kinase. J. Biol Chem 280: 31208-31219). Its kinase activity was analyzed in the buffer C, with 1 mg of histone H1/mL, in the presence of 15 μM of [γ-^33P] ATP (3,000 Ci/mmol; 10 mCi/mL) in a final volume of 30 μl. After 30 mins of incubation at 30° C., 25 μl of supernatant aliquots were deposited on 2.5×3 cm pieces of phosphocellulose Whatman P81 paper, and after 20 seconds, the filters were washed five times (for at least 5 minutes every time) in a solution of 10 mL phosphoric acid/liter of water. The wet filters were counted in the presence of 1 mL of ACS scintillator fluid (Amersham).

GSK-3αβ = GSK-3αβ kinase inhibition (GS-1 substrate, buffer A); type: biochemical; conditions: 15 μM ATP, 30° C., native, pig brain; read-out: IC50 Kinases GSK3
Description: as §5, §6, §7
GSK-3αβ (from pig brain, native) was assayed by using a specific substrate of GSK-3 (GS-1: […]pEDEEE)(Sp represents a phosphorylated serine) (Primot, A., Baratte, B., Gompel, M., Borgne, A., Liabeuf, S., Romette, J. L., Costantini, F. and Meijer, L., 2000. Purification of GSK-3 by affinity chromatography on immobilized axin. Protein Expr. & Purif. 20 (3), 394-404). GS-1 was synthesized by Millegen (Labège, France). Its kinase activity was analyzed in the buffer A, with 1 mg of histone H1/mL, in the presence of 15 μM of [γ-^33P] ATP (3,000 Ci/mmol; 10 mCi/mL) in a final volume of 30 μl. After 30 mins of incubation at 30° C., 25 μl of supernatant aliquots were deposited on 2.5×3 cm pieces of phosphocellulose Whatman P81papier, and after 20 seconds, the filters were washed five times (for at least 5 minutes every time) in a solution of 10 mL of phosphoric acid/liter of water. The wet filters were counted in the presence of 1 mL of ACS scintillator fluid (Amersham).

| Structure (SMILES) | IC50 (Huh7) [µM] | IC50 (Caco) [µM] | IC50 (MDA-MB 231) [µM] | IC50 (HCT 116) [µM] | IC50 (PC3) [µM] | IC50 (NCI) [µM] | IC50 (fibroblast) [µM] | IC50 (DYRK1A) [µM] | IC50 (CDK5) [nM] | IC50 (GSK-3αβ) [µM] | melting point [°C] |
| --- | --- | --- | --- | --- | --- | --- | --- | --- | --- | --- | --- |
| Oc1ccc(-c2ncc3ncc(Nc4ncccn4)cc3n2)cc1 [Compound 52, 2-(4-Hydroxyphenyl)-7-(2-pyrimidinylamino)-pyrido[3,2-d]pyrimidine] | 25 | 5 | 2.5 | 2 | 1.5 | 1.5 | 2 | > 10 | 7600 | > 10 | > 268 |
| Oc1ccc(-c2ncc3ncc(Nc4ccon4)cc3n2)cc1 [Compound 48, 2-(4-Hydroxyphenyl)-7-(3-isoxazolamino)-pyrido[3,2-d]pyrimidine] | 25 | 20 | 12 | 9 | 20 | 3 | 15 | 2 | 2100 | > 10 | > 268 |
| COc1ccc(Nc2cnc3c(NCc4ccccc4)nc(NCCO)nc3c2)cc1OC [Compound 85, 4-Benzylamino-7-(3,4-dimethoxyphenylamino)-2-(2-hydroxyethylamino)-pyrido[3,2-d]pyrimidine] | 1.5 | 4 | 15 | 4 | 4 | 2 | 5 | > 10 | > 10000 | > 10 | 149 to 150 |
| Oc1ccc(-c2ncc3ncc(-c4cccc(O)c4)cc3n2)cc1 [Compound 23, 2-(4-Hydroxyphenyl)-7-(3-hydroxyphenyl)-pyrido[3,2-d]pyrimidine] | 10 | 4 | > 25 | 7 | 9 | 20 | > 25 | 2.4 | 110 | > 100 | 256 to 257 |
| Oc1ccc(Nc2ncc3ncc(-c4ccc(O)cc4)cc3n2)cc1 [Compound 62, 2-(4-Hydroxyphenylamino)-7-(4-hydroxyphenyl)-pyrido[3,2-d]pyrimidine] | 12 | 15 | 10 | 12 | 15 | 4 | 5 | > 10 | 840 | 7.1 | > 268 |
| COc1ccc(Nc2cnc3cnc(-c4ccc(O)cc4)nc3c2)cc1 [Compound 51, 2-(4-Hydroxyphenyl)-7-(4-methoxyphenylamino)-pyrido[3,2-d]pyrimidine] | 15 | 12 | 15 | 15 | 2 | 10 | 10 | > 10 | 1800 | 7.3 | 134 to 136 |
| Cc1ncccc1Nc1cnc2cnc(-c3ccc(O)cc3)nc2c1 [Compound 53, 2-(4-Hydroxyphenyl)-7-(3-(2-methyl)-pyridinylamino)-pyrido[3,2-d]pyrimidine] | 12 | 15 | 9 | > 25 | 6 | 15 | 10 | > 10 | > 10000 | > 10 | 186 to 188 |
| Oc1ccc(Nc2ncc3ncc(-c4ccccc4O)cc3n2)cc1 [Compound 60, 2-(4-Hydroxyphenylamino)-7-(2-hydroxyphenyl)-pyrido[3,2-d]pyrimidine] | 6 | 4 | 10 | 8 | 20 | 5 | 5 | > 10 | 3700 | > 10 | 262 to 264 |
| Cc1csc(Nc2cnc3cnc(-c4ccc(O)cc4)nc3c2)n1 [Compound 50, 2-(4-Hydroxyphenyl)-7-(2-(4-methyl)thiazolamino)-pyrido[3,2-d]pyrimidine] | 10 | > 25 | 25 | > 25 | > 25 | 25 | > 25 | > 10 | > 10000 | > 10 | > 268 |
